“And” between values parts separate entries of the source, which are not always exact repeats. Equal values may be shown once. Inconclusive results and toxic doses are left out. How the source made its calls: active means survival T/C of 150% or more; inactive means T/C below 125% in these data.
Test system: P388 leukemia ip, CD2F1 mice, survival T/C
Test: NCI In Vivo Anticancer Drug Screen. Data for tumor model P388 Leukemia (intraperitoneal) in CD2F1 (CDF1) mice
Conditions: endpoint: median survival time, higher = longer survival
Summary of the method: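 Mice carrying the transplanted tumor received test compound or vehicle. Survival was recorded in each group, and the value is the treated-group measurement divided by that of the vehicle-treated control group.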

[1] = dose: 12.5 mg/kg/injection, schedule: Q01DX009 (ip), vehicle: saline with Tween-80
[2] = dose: 25.0 mg/kg/injection, schedule: Q01DX009 (ip), vehicle: saline with Tween-80
[3] = dose: 50.0 mg/kg/injection, schedule: Q01DX009 (ip), vehicle: saline with Tween-80
[4] = dose: 100.0 mg/kg/injection, schedule: Q04DX003 (ip), vehicle: saline with Tween-80
[5] = dose: 200.0 mg/kg/injection, schedule: Q04DX003 (ip), vehicle: saline with Tween-80
[6] = dose: 25.0 mg/kg/injection, schedule: Q01DX009 (ip), vehicle: Klucel (hydroxypropylcellulose) (HPC)
[7] = dose: 50.0 mg/kg/injection, schedule: Q01DX009 (ip), vehicle: Klucel (hydroxypropylcellulose) (HPC)
[8] = dose: 100.0 mg/kg/injection, schedule: Q01DX009 (ip), vehicle: Klucel (hydroxypropylcellulose) (HPC)
[9] = dose: 200.0 mg/kg/injection, schedule: Q01DX009 (ip), vehicle: Klucel (hydroxypropylcellulose) (HPC)
[10] = dose: 50.0 mg/kg/injection, schedule: Q01DX005 (ip), vehicle: Klucel (hydroxypropylcellulose) (HPC)
[11] = dose: 100.0 mg/kg/injection, schedule: Q01DX005 (ip), vehicle: Klucel (hydroxypropylcellulose) (HPC)
[12] = dose: 200.0 mg/kg/injection, schedule: Q01DX005 (ip), vehicle: Klucel (hydroxypropylcellulose) (HPC)
[13] = dose: 50.0 mg/kg/injection, schedule: Q01DX005 (ip), vehicle: saline with Tween-80
[14] = dose: 100.0 mg/kg/injection, schedule: Q01DX005 (ip), vehicle: saline with Tween-80
[15] = dose: 50.0 mg/kg/injection, schedule: Q01DX005 (ip), vehicle: saline
[16] = dose: 100.0 mg/kg/injection, schedule: Q01DX005 (ip), vehicle: saline
[17] = dose: 200.0 mg/kg/injection, schedule: Q01DX005 (ip), vehicle: saline
[18] = dose: 200.0 mg/kg/injection, schedule: Q01DX005 (ip), vehicle: saline with Tween-80
[19] = dose: 100.0 mg/kg/injection, schedule: Q01DX009 (ip), vehicle: saline with Tween-80
[20] = dose: 50.0 mg/kg/injection, schedule: Q01DX009 (ip), vehicle: saline
[21] = dose: 100.0 mg/kg/injection, schedule: Q01DX009 (ip), vehicle: saline
[22] = dose: 200.0 mg/kg/injection, schedule: Q01DX009 (ip), vehicle: saline

Measured: T/C

COC1/C=C/OC2(C)Oc3c(C)c(O)c4c(O)c(c(/C=N/N5C(C)CN(Cc6cccc(C#N)c6)CC5C)c(O)c4c3C2=O)NC(=O)/C(C)=C\C=C\C(C)C(O)C(C)C(O)C(C)C(OC(C)=O)C1C (centres undefined)
inactive: [1] 110 % of control | [2] 109 % of control | [3] 109 % of control and 118 % of control

C(=Nc1ccc2c(c1)Cc1ccccc1-2)c1ccc2ccccc2c1
inactive: dose: 400.0 mg/kg/injection, schedule: Q04DX002 (ip), vehicle: saline 90 % of control

CC(C)C(Br)C(=O)NCC(=O)O (centres undefined)
inactive: [4] 100 % of control | [5] 95 % of control | dose: 400.0 mg/kg/injection, schedule: Q04DX003 (ip), vehicle: saline with Tween-80 100 % of control

CCN(c1ccccc1)S(=O)(=O)c1cc(N)ccc1C
inactive: [6] 101 % of control | [7] 100 % of control | [8] 110 % of control | [9] 97 % of control | dose: 400.0 mg/kg/injection, schedule: Q01DX009 (ip), vehicle: Klucel (hydroxypropylcellulose) (HPC) 93 % of control

N=Nc1c(OC(=O)Nc2ccccc2)[nH]c2ccccc12
inactive: [10] 90 % of control | [11] 90 % of control | [12] 87 % of control

O=C(O)COc1nc(Cl)c(Cl)cc1Cl
inactive: dose: 60.0 mg/kg/injection, schedule: Q01DX005 (ip), vehicle: Klucel (hydroxypropylcellulose) (HPC) 101 % of control and 104 % of control | dose: 120.0 mg/kg/injection, schedule: Q01DX005 (ip), vehicle: Klucel (hydroxypropylcellulose) (HPC) 103 % of control | dose: 240.0 mg/kg/injection, schedule: Q01DX005 (ip), vehicle: Klucel (hydroxypropylcellulose) (HPC) 113 % of control and 94 % of control

O=c1[nH]cc([N+](=O)[O-])cc1Cl
inactive: [13] 104 % of control | [14] 95 % of control

[O-][n+]1c(C2=C(N3CCCC3)c3ccccc3C2)c(Cl)c(Cl)c(Cl)c1C1=C(N2CCCC2)c2ccccc2C1
inactive: dose: 25.0 mg/kg/injection, schedule: Q01DX005 (ip), vehicle: saline with Tween-80 102 % of control | [13] 103 % of control | [14] 93 % of control

CCOC(=O)c1c(-c2ccccc2)noc1N
inactive: dose: 25.0 mg/kg/injection, schedule: Q01DX005 (ip), vehicle: saline 100 % of control | [15] 100 % of control | [16] 98 % of control | [17] 100 % of control | dose: 400.0 mg/kg/injection, schedule: Q01DX005 (ip), vehicle: saline 104 % of control

CC(C)SC(=O)C=C(c1ccccc1)c1ccccc1
inactive: dose: 100.0 mg/kg/injection, schedule: Q01DX001 (ip), vehicle: Klucel (hydroxypropylcellulose) (HPC) 95 % of control | dose: 200.0 mg/kg/injection, schedule: Q01DX001 (ip), vehicle: Klucel (hydroxypropylcellulose) (HPC) 96 % of control | dose: 400.0 mg/kg/injection, schedule: Q01DX001 (ip), vehicle: Klucel (hydroxypropylcellulose) (HPC) 100 % of control

CCOC(=O)CC1CCCN1Sc1ccc([N+](=O)[O-])cc1[N+](=O)[O-] (centres undefined)
inactive: [13] 100 % of control | [14] 101 % of control | [18] 100 % of control

COc1ccc2c(CP(=O)(O)O)cc(=O)oc2c1
inactive: dose: 100.0 mg/kg/injection, schedule: Q01DX001 (ip), vehicle: suspension in saline 99 % of control | dose: 200.0 mg/kg/injection, schedule: Q01DX001 (ip), vehicle: suspension in saline 100 % of control | dose: 400.0 mg/kg/injection, schedule: Q01DX001 (ip), vehicle: suspension in saline 87 % of control

CC(C)C(O)C1CCOS1(=O)=O (centres undefined)
inactive: dose: 100.0 mg/kg/injection, schedule: Q04DX003 (ip), vehicle: saline 95 % of control | dose: 200.0 mg/kg/injection, schedule: Q04DX003 (ip), vehicle: saline 101 % of control

CCCc1cc(=O)[nH]c(Sc2c([N+](=O)[O-])ncn2C)n1
inactive: [3] 103 % of control | [19] 95 % of control | dose: 200.0 mg/kg/injection, schedule: Q01DX009 (ip), vehicle: saline with Tween-80 91 % of control

COC(=O)C(C(=O)OC)=C(NS(=O)(=O)c1ccc(C)cc1)SC
inactive: dose: 12.5 mg/kg/injection, schedule: Q04DX002 (ip), vehicle: saline with Tween-80 100 % of control | dose: 25.0 mg/kg/injection, schedule: Q04DX002 (ip), vehicle: saline with Tween-80 100 % of control | dose: 50.0 mg/kg/injection, schedule: Q04DX002 (ip), vehicle: saline with Tween-80 109 % of control

NC(=O)c1ccccc1NC(=O)CCCC(=O)O
inactive: [20] 98 % of control | [21] 108 % of control | [22] 97 % of control

CCOC(=O)C1=C(c2ccccc2)OC(N)=C(C#N)C1c1ccccc1 (centres undefined)
inactive: [10] 107 % of control | [11] 103 % of control | [12] 101 % of control

CC(/C=C/c1ccccc1)=N\NS(=O)(=O)c1ccc(C)cc1
inactive: [13] 95 % of control | [14] 91 % of control

COP(=O)(CI)OC
inactive: [20] 102 % of control | [21] 99 % of control | [22] 107 % of control

COc1ccn(C2CCCO2)c(=O)n1 (centres undefined)
inactive: [15] 95 % of control | [16] 100 % of control | [17] 88 % of control

CC1=C[C@H]2C[C@]3(C)CC[C@H]4[C@H](C)C(=O)O[C@@H]4[C@@]13OO2
inactive: dose: 0.75 mg/kg/injection, schedule: Q01DX005 (ip), vehicle: Klucel (hydroxypropylcellulose) (HPC) 107 % of control | dose: 1.5 mg/kg/injection, schedule: Q01DX005 (ip), vehicle: Klucel (hydroxypropylcellulose) (HPC) 103 % of control | dose: 3.0 mg/kg/injection, schedule: Q01DX005 (ip), vehicle: Klucel (hydroxypropylcellulose) (HPC) 90 % of control | dose: 6.0 mg/kg/injection, schedule: Q01DX005 (ip), vehicle: Klucel (hydroxypropylcellulose) (HPC) 111 % of control

CCCCCOc1ccc(C(=O)Oc2ccc(N=Nc3nccs3)cc2)cc1
inactive: [13] 98 % of control | [14] 101 % of control | [18] 96 % of control

NC(=S)NNC(=O)c1ccc([N+](=O)[O-])cc1
inactive: [6] 100 % of control | [7] 105 % of control | [8] 99 % of control | [9] 96 % of control

NNC(=O)CCn1[nH]c(=O)c(Cl)c(Cl)c1=O
inactive: [13] 100 % of control | [14] 100 % of control | [18] 100 % of control

CCC(C)C1NC(=O)C2C(CCN2C(=O)C(Cc2c[nH]c3ccccc23)NC(=O)C(CC(C)C)N(C)C)Oc2ccc(cc2)/C=C\NC1=O (centres undefined)
inactive: [4] 94 % of control | [5] 97 % of control

NC(=O)C1=Cc2cc(Cl)ccc2OC1
inactive: dose: 6.25 mg/kg/injection, schedule: Q01DX009 (ip), vehicle: saline with Tween-80 97 % of control | [1] 102 % of control | [2] 92 % of control | [3] 106 % of control

Nc1nc(-c2ccccn2)cc2ccc(Cl)cc12
inactive: dose: 100.0 mg/kg/injection, schedule: Q01DX001 (ip), vehicle: saline with Tween-80 101 % of control | dose: 200.0 mg/kg/injection, schedule: Q01DX001 (ip), vehicle: saline with Tween-80 104 % of control | dose: 400.0 mg/kg/injection, schedule: Q01DX001 (ip), vehicle: saline with Tween-80 104 % of control

O=C(O)c1nccc2ccccc12
inactive: [1] 103 % of control | [2] 103 % of control | [3] 105 % of control | [19] 106 % of control

COC(=O)C1=C(C(=O)OC)P2(c3ccccc3)(c3ccccc3)N(c3ccccc3)C(=Nc3ccccc3)N2C1(c1ccccc1)c1ccccc1
inactive: [10] 94 % of control | [11] 102 % of control and 96 % of control | [12] 100 % of control and 89 % of control

— PubChem BioAssay AID330 (DTP/NCI, 2004)
